The structures appear in SMILES notation.

The target in data set [1] is T1, cloned human and rat GPR-14 (UniProt Q9UKP6).
T1 sequence (Q9UKP6 1-389): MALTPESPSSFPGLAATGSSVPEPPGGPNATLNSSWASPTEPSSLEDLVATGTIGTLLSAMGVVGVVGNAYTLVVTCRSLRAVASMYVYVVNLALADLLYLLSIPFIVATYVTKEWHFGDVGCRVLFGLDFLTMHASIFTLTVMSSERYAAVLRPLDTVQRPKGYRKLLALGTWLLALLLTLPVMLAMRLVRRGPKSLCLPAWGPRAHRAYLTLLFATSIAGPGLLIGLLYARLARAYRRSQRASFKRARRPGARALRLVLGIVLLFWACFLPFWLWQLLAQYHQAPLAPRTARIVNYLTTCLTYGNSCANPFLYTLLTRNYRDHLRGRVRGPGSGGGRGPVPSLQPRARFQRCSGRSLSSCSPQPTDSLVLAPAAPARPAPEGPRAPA
The data set can be described thus: Radioligand binding, [125I] h-U-II on HEK-293 cell membranes. The conditions noted are these: HEK-293 cell membranes with stable cloned GPR-14, 200 pM [125I] h-U-II; species of receptor not given. The procedure: HEK-293 cell membranes containing stable cloned human and rat GPR-14 (20 ug/assay) were incubated with 200 pM [125I] h-U-II (200 Ci/mmol^−1 in the presence of increasing concentrations of test compounds in DMSO (0.1 nM to 10 uM), in a final incubation volume of 200 ul (20 mM Tris-HCl, 5 mM MgCl2). Incubation was done for 30 minutes at room temperature followed by filtration GF/B filters with Brandel cell harvester. ^125I labeled U-II binding was quantitated by gamma counting. Nonspecific binding was defined by ^125I U-II binding in the presence of 100 nM of unlabeled human U-II. Analysis of the data was performed by nonlinear least square fitting.

For orientation: melting point means the temperature of the solid-liquid transition. Regarding `CN(C)CCOc1cc(NS(=O)(=O)c2ccc(Oc3cccc(Cl)c3C#N)cc2)ccc1Cl` [Example 1, 4-(3-Chloro-2-cyano-phenoxy)N-[4-chloro-3-(2-dimethylamino-ethoxy)-phenyl]-benzenesulfonamide], the melting point was 103 to 106 °C (dec.).
What is called Ki is a dissociation constant, usually derived from enzyme kinetics or from competition with a known ligand. On to `CCN(CC)CCOc1cc(NS(=O)(=O)c2cc(Cl)c(Oc3ccc([N+](=O)[O-])cc3Cl)c(Cl)c2)ccc1Cl` [Example 19, 3,5-Dichloro-N-[4-chloro-3-(2-diethylamino-ethoxy)-phenyl]-4-(2-chloro-4-nitro-phenoxy)-benzenesulfonamide], for which the Ki in data set [1] was found to be 520 nM. In other words, the sub-micromolar range.

The values above are taken from patent US6849635B2, “Sulfonamides” (SmithKline Beecham Corporation, priority 2001, dated 2005).
